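The compound was tested at five concentrations on cells cultured in 96-well plates, with a 48-hour exposure period. The concentration for 50% growth inhibition is given as GI50.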 The source made the active and inactive calls. No stated cut-off is given here; in the data, active = GI50 up to about 1.1 µM and inactive = higher. Non-standard residues stand in square brackets, D forms with d. Residues, ends and D or L forms follow the SMILES beside them. ξ: configuration not given here. Pen = CC(C)(S)[C@H](N)C(=O)O; ξL = CC(C)CC(N)C(=O)O
What was measured:
Test in all cases: NCI anticancer screen, dose series, 48 h
MOLT-4 = tested on: MOLT-4
HCC 2998 = tested on: HCC 2998
SW-620 = tested on: SW-620
NCI-H23 = tested on: NCI-H23
SNB-19 = tested on: SNB-19
UACC-62 = tested on: UACC-62
OVCAR-4 = tested on: OVCAR-4
SK-MEL-5 = tested on: SK-MEL-5
OVCAR-5 = tested on: OVCAR-5
HCT-15 = tested on: HCT-15
A549 = tested on: A549
RXF 393 = tested on: RXF 393
SF-295 = tested on: SF-295
Malme-3M = tested on: Malme-3M
UO-31 = tested on: UO-31
SK-MEL-28 = tested on: SK-MEL-28
SK-OV-3 = tested on: SK-OV-3
U-251 = tested on: U-251
CCRF-CEM = tested on: CCRF-CEM
SF-268 = tested on: SF-268

SMILES | GI50 (MOLT-4) | GI50 (HCC 2998) | GI50 (SW-620) | GI50 (NCI-H23) | GI50 (SNB-19) | GI50 (UACC-62) | GI50 (OVCAR-4) | GI50 (SK-MEL-5) | GI50 (OVCAR-5) | GI50 (HCT-15) [µM] | GI50 (A549) | GI50 (RXF 393) | GI50 (SF-295) | GI50 (Malme-3M) | GI50 (UO-31) | GI50 (SK-MEL-28) | GI50 (SK-OV-3) | GI50 (U-251) | GI50 (CCRF-CEM) | GI50 (SF-268)
CCCCCCSc1nc(N)nc2nc[nH]c12 | > 55.2 µM (inactive) | > 55.5 µM (inactive) | 56.2 µM (inactive) | 31.8 µM (inactive) | 39.4 µM (inactive) | 37 µM (inactive) | 52.7 µM (inactive) | 20.3 µM (inactive) | 41.2 µM (inactive) | 35.4 | 30 µM (inactive) | 32.7 µM (inactive) | 59.6 µM (inactive) | 35.7 µM (inactive) | 24.3 µM (inactive) | 59.3 µM (inactive) | 28.8 µM (inactive) | 35.4 µM (inactive) | 46.6 µM (inactive) | 46.7 µM (inactive)
COC(=O)C(/C(=N/NC(N)=S)C(=O)Nc1ccccc1[N+](=O)[O-])c1cnc2ccccc2n1 (stereo not given) | 83 µM (inactive) | > 100 µM (inactive) | > 100 µM (inactive) | > 100 µM (inactive) | > 100 µM (inactive) | > 100 µM (inactive) | > 100 µM (inactive) | > 100 µM (inactive) | > 100 µM (inactive) | > 100 | > 100 µM (inactive) | > 100 µM (inactive) | > 100 µM (inactive) | > 100 µM (inactive) | > 100 µM (inactive) | > 100 µM (inactive) | > 100 µM (inactive) | > 100 µM (inactive) | > 100 µM (inactive) | > 100 µM (inactive)
COC(=O)C1C(O)C(C)C(O)C(C)(O)/C=C\C=C(C)C(=O)Nc2c(C)c(OC(C)=O)c3c(c2O)C(=O)C(C)=C2OCOC(=C23)C(C)=CC(C)(O)C(O)C(C)C1OC(C)=O (stereo not given) | 38 µM (inactive) | 34.4 µM (inactive) | 38.3 µM (inactive) | 24.4 µM (inactive) | 89.9 µM (inactive) | 21.1 µM (inactive) | 75 µM (inactive) | 30.3 µM (inactive) | > 100 µM (inactive) | 35.5 | > 100 µM (inactive) | 22.4 µM (inactive) | 80.4 µM (inactive) | 28.9 µM (inactive) | > 100 µM (inactive) | 40.1 µM (inactive) | > 95.1 µM (inactive) | 57.4 µM (inactive) | 34.7 µM (inactive) | 46.6 µM (inactive)
O=C(O)C(F)(F)C(F)(F)C(F)(F)C(F)(F)C(F)(F)C(F)(F)C(F)(F)C(F)(F)F | > 100 µM (inactive) | 86.9 µM (inactive) | 52.5 µM (inactive) | 61.4 µM (inactive) | 39.6 µM (inactive) | > 100 µM (inactive) | 73.3 µM (inactive) | 80 µM (inactive) | 33.3 µM (inactive) | 27.4 | 47.8 µM (inactive) | > 100 µM (inactive) | 31 µM (inactive) | > 100 µM (inactive) | 47.5 µM (inactive) | > 100 µM (inactive) | 29.6 µM (inactive) | 26.4 µM (inactive) | 28.2 µM (inactive) | 54.7 µM (inactive)
CCOC(=O)/C=C/c1c[nH]c(C(=O)OCC)c1 | > 100 µM (inactive) | > 100 µM (inactive) | > 100 µM (inactive) | > 100 µM (inactive) | > 100 µM (inactive) | > 69.3 µM (inactive) | > 100 µM (inactive) | > 100 µM (inactive) | > 100 µM (inactive) | > 100 | > 100 µM (inactive) | > 100 µM (inactive) | > 100 µM (inactive) | > 100 µM (inactive) | > 100 µM (inactive) | > 100 µM (inactive) | > 100 µM (inactive) | > 100 µM (inactive) | > 100 µM (inactive) | > 100 µM (inactive)
CCOC(=O)CNC(=O)NC12CC3CC(CC(C3)C1)C2 | 180 µM (inactive) | 142 µM (inactive) | 247 µM (inactive) | 182 µM (inactive) | 270 µM (inactive) | 125 µM (inactive) | 294 µM (inactive) | 131 µM (inactive) | 432 µM (inactive) | 229 | 229 µM (inactive) | 80.9 µM (inactive) | 322 µM (inactive) | 133 µM (inactive) | 171 µM (inactive) | 179 µM (inactive) | > 418 µM (inactive) | 269 µM (inactive) | 182 µM (inactive) | 284 µM (inactive)
CSCC[C@H](NC(=O)C(CC(C)C)NC(=O)[C@H](Cc1c[nH]cn1)NC(=O)CNC(=O)[C@@H](NC(=O)[C@@H](C)NC(=O)[C@H](Cc1c[nH]c2ccccc12)NC(=O)[C@H](CCC(N)=O)NC(=O)[C@@H](N)CC(N)=O)C(C)(C)SC)C(N)=O (stereo not given in full) (H-NQW[dA][Pen](Me)GH[ξL]M-NH2) | > 100 µM (inactive) | > 100 µM (inactive) | > 100 µM (inactive) | > 100 µM (inactive) | > 100 µM (inactive) | > 100 µM (inactive) | > 100 µM (inactive) | > 100 µM (inactive) | > 100 µM (inactive) | > 100 | > 100 µM (inactive) | > 100 µM (inactive) | > 100 µM (inactive) | > 100 µM (inactive) | > 100 µM (inactive) | > 100 µM (inactive) | > 100 µM (inactive) | > 100 µM (inactive) | > 100 µM (inactive) | > 100 µM (inactive)

Reference: ChEMBL document CHEMBL1201862, “PubChem BioAssay data set” (2004)
